According to article PMC4213378, “Pharmacokinetics and Efficacy of the Spleen Tyrosine Kinase Inhibitor R406 after Ocular Delivery for Retinoblastoma” (Pharmaceutical Research, 2014):
≈ marks a conversion by molar mass, not a printed value. Each block holds one compound with its values, some of them ahead of it.

Tests used:
[1] = tested on: human orthotopic retinoblastoma xenografts; design: method as in PMID 22237022; settings: cited from earlier work
retinoblastoma cells = tested on: retinoblastoma cells; design: method as in PMID 22237022; settings: cited from earlier work
[2] = Crashing upon dilution of DMSO stock in PBS; type: physicochemical
Description: Supplement 11095_2014_1399_MOESM1_ESM.docx, table 14: Table S14. R406 phenylsulfonate salt and free base crashing upon dilution of DMSO stock in PBS | column: Measured Concentration

[3] = Intraocular and plasma R406 after topical administration (eye drops); type: in vivo, mouse; settings: mice; for R406 levels in the eye at 0.5 h post dosing / R406 levels in the eye at 1 h post dosing / drug in plasma samples: single topical dose; for R406 levels in the eye at 0.5 h post dosing / R406 levels in the eye at 1 h post dosing: drops, 2 μL of 25 mM suspension in 5% HPβCD; for drug in plasma samples: data not shown
Description: (§1) For oral delivery of R788, the target dose of 25 mg/kg R788 was administered by oral gavage as a 4 mM solution in 0.01 N citrate buffer, pH 6 ([9]). For subconjunctival administration, R788 was prepared at a concentration of 4 mM in 2% PEG-800 and filtered through a 0.22 μm filter prior to use (see Table S1). R788 was also administered subconjunctivally as a suspension at a concentration of 25 mM in 10% 2-hydroxylpropyl-β-cyclodextrin (HPβCD, Sigma-Aldrich). For subconjunctival administration, R406 phenylsulfonate salt was administered at a concentration of 800–900 μM as a cosolvent solution in a formulation of 5% Cremaphor-eL, 0.5% ethanol, 0.2% Tween 80 and 94.3% PBS, filtered through a 0.22 μm filter prior to use (see Table S2). R406 phenylsulfonate salt was also administered subconjunctivally at a dose of 31.4 mM solution in DMSO. R406 free base was administered subconjunctivally at a concentration of 6.5 mM as a 25% castor oil (Sigma-Aldrich) emulsion. This emulsion was prepared by mixing castor oil: ethanol (1:1) solution of R406 (approx. 35 mM), in vacuo evaporation of the ethanol, and centrifugation to remove any excess R406, then emulsifying the R406 oil phase in an aqueous phase comprised of Cremaphor-eL, Tween 80 and PBS (final composition of the emulsion: 25% castor oil, 5% Cremaphor-eL, 0.2% Tween-80, 69.8% PBS) by probe sonication. For intravitreal injection, R788 solution was prepared by filtering a 0.12 mM (120 μM) solution of R788 in saline through a 0.22 μm filter. […] For topical delivery, 25–30 mM suspensions were prepared in 5% HPβCD. R406 or R788 concentration in all formulations was determined by UPLC prior to study (in cases where formulation was filtered before administration, concentration was determined post-filtering) Table I.
(§2) For the systemic delivery study R788 was administered as a single bolus dose (25 mg/kg, 10 mL/kg volume) by oral gavage. For the subconjunctival administration study R788 or R406 (10 µL of formulation) was injected into the subconjunctival space of an anesthetized mouse using a Hamilton microliter syringe (Hamilton company, Reno NV). For the intravitreal administration study, R788 (5 μL of […] in saline) was administered to each eye via direct injection. To perform the intravitreal injection, mice were anesthetized, a small incision between the sclera and the cornea was created with a […] needle, and the R788 was injected into the vitreous using a Hamilton microliter syringe. For the topical administration study, R406 (2 μL of 25–30 mM suspension) was applied as a drop to the surface of each eye of an anesthetized mouse.
(§3) At serial time points (0.5, 1, 2, 4, and 8 h post-injection, n = 3 for each time point), blood was collected by terminal cardiac puncture after isoflurane anesthesia. Whole-blood samples were centrifuged immediately at 10,000×g for 5 min at 4°C to separate plasma. Once the cardiac puncture and blood collection was completed, the animal was perfused with 10 mL of saline and euthanized by cervical dislocation. Eyes were removed, rinsed in PBS, gently patted dry, then rinsed and dried again. Eyes were dissected and vitreous was collected. Plasma and vitreous samples were put on dry ice immediately after collection and stored at −80°C until analysis. For quantitative analysis methods and assay validation methods and results, see Supplementary Information.
To evaluate the topical route for R406 delivery, we tested the intraocular concentration after a single topical dose of R406 free base or an R406 […] salt.

[4] = Vitreous pharmacokinetics after oral or subconjunctival administration; type: in vivo, mouse; settings: local (subconjunctival), castor oil emulsion 6.5 mM, 65 nmol per eye, mice
Description: as §1, §2, §3
(§4) Plasma and vitreous concentration time data were analyzed using non-compartmental analysis in WinNonlin 6.2 (Pharsight, Mountain View, CA), providing PK parameters including Cmax (maximum observed concentration), Tmax (time to reach maximum observed concentration), AUC (area under the concentration time curve) and MRT (mean residence time). AUC and AUMC (area under the concentration time first moment curve) values were estimated with the linear trapezoidal method, with parameters calculated using mean concentration values at each time point. […]

[5] = Maximum solubility in PBS or saline; type: physicochemical
[6] = Concentration and stability of R406 in castor oil and castor oil emulsion; type: physicochemical
Description: as §1
An emulsion of 30% castor oil, 5% Cremaphor, 4% T80, 61% PBS was prepared and samples were stored at 4 °C and room temperature (25 °C). Samples were diluted and OD600 for each dilution was measured in triplicate on the day of emulsion preparation (storage time = 0 days) and after 6 days of storage. OD600 was measured using a black Costar clear bottom plate and a Spectramax plate reader.
For storage stability in emulsion, n =4.

[7] = Plasma pharmacokinetics after oral or subconjunctival administration; type: in vivo, mouse; settings: local (subconjunctival), castor oil emulsion 6.5 mM, 65 nmol per eye; mice
Description: as §1, §2, §3, §4

[8] = Vitreous and plasma R406 after intravitreal injection of R788; type: in vivo, mouse; settings: intravitreal injection of R788 in saline, 5 μL per eye of 120 μM; mice
Description: For oral delivery of R788, the target dose of 25 mg/kg R788 was administered by oral gavage as a 4 mM solution in 0.01 N citrate buffer, pH 6 ([9]). For subconjunctival administration, R788 was prepared at a concentration of 4 mM in 2% PEG-800 and filtered through a 0.22 μm filter prior to use (see Table S1). R788 was also administered subconjunctivally as a suspension at a concentration of 25 mM in 10% 2-hydroxylpropyl-β-cyclodextrin (HPβCD, Sigma-Aldrich). For subconjunctival administration, R406 phenylsulfonate salt was administered at a concentration of 800–900 μM as a cosolvent solution in a formulation of 5% Cremaphor-eL, 0.5% ethanol, 0.2% Tween 80 and 94.3% PBS, filtered through a 0.22 μm filter prior to use (see Table S2). R406 phenylsulfonate salt was also administered subconjunctivally at a dose of 31.4 mM solution in DMSO. […] R406 or R788 concentration in all formulations was determined by UPLC prior to study (in cases where formulation was filtered before administration, concentration was determined post-filtering) Table I. […]
At serial time points (0.5, 1, 2, 4, and 8 h post-injection, n = 3 for each time point), blood was collected by terminal cardiac puncture after isoflurane anesthesia. […] For quantitative analysis methods and assay validation methods and results, see Supplementary Information.

[9] = Co-solvent solution formulation solubility matrix; type: physicochemical; settings: read-out: R788 Solubility
[10] = Bioconversion of R788 to R406 in mouse vitreous; type: in vitro ADME; settings: extracted mouse vitreous, 37°C, initial 25 μM R788, within 2 h
Description: Conversion of R788 to R406 was examined in freshly harvested murine vitreous, 2 U/mL bovine alkaline phosphatase in PBS (positive control), or plain PBS (no enzyme, negative control) at 37°C using a modified version of previously described phosphate prodrug conversion protocols ([9], [12]). Alkaline phosphatase (ALP) from bovine intestinal mucosa was obtained from Invitrogen and was reconstituted and diluted according to the manufacturer’s instructions. Vitreous was harvested from a mixed population of mice, pooled, and kept on ice for 1 - 2 h. The incubation media were pre-warmed to 37°C before the reaction was initiated by addition of 1 mM of R788 in saline (6 μL of R788 in saline into 234 μL of incubation media in a 1.5 mL Eppendorf tube). R788 was diluted into the incubation media at a 1:40 ratio (volume:volume) to mimic the dilution encountered during intravitreal injection in humans (typically 100 μL injection volume into 4–5 mL of human vitreous volume ([13], [14]). Initial estimated concentration of R788 was 25 μM. At the desired time points (0, 5, 10, 20, 30, 45, 60, and 120 min) an aliquot of 25 μl was collected from each incubation vial and transferred to a 1.5 mL Eppendorf tube, containing 25 μl of acetonitrile to terminate the reaction. 3 samples were tested per time point. Samples were stored at −80°C until quantification.

[11] = design: method as in PMID 21515735; settings: subconjunctival administration; previous work; cited from earlier work
[12] = design: method as in PMID 21515735; settings: previous work; cited from earlier work

SMILES: COc1ccc(-c2cc3nccn3c(Nc3ncccc3C(N)=O)n2)cc1OC [BAY-61-3606]
blocking proliferation of human orthotopic retinoblastoma xenografts in vivo [1]: efficacious | induction of caspase-mediated cell death of retinoblastoma cells in vitro (retinoblastoma cells): can induce caspase-mediated cell death

SMILES: COc1cc(Nc2ncc(F)c(Nc3ccc4c(n3)NC(=O)C(C)(C)O4)n2)cc(OC)c1OC [R406 free base]
Measured Concentration ([2]; DMSO stock diluted 1 in 10 in PBS prior to filtration (theoretical 1.11 mM)): 965 µM | Measured Concentration ([2]; DMSO stock diluted 1 in 10 in PBS, 0.22 micron filtered): 7 µM | Measured Concentration ([2]; DMSO stock diluted 1 in 20 in PBS, 0.22 micron filtered): 6 µM | Measured Concentration ([2]; DMSO stock, printed 'diluted 1 in 10 in PBS prior to filtration' (second such line, theoretical 557 µM)): 510 µM | R406 levels in the eye at 0.5 h post dosing [3]: 0.1 ± 0.06 µM | R406 levels in the eye at 1 h post dosing [3]: 0.1 ± 0.1 µM | drug in plasma samples [3]: No detectable drug | Cmax [4]: 0.169 ± 0.0359 µM | Vitreous AUClast [4]: 430 nM·h | Vitreous Dose normalized AUC [4]: 3.3 nM∙h/nmol | Vitreous MRT0-4h [4]: 2.19 h | Vitreous Tlast [4]: 4 h | Vitreous Tmax [4]: 0.5 h | Vitreous MRT0-4h ([4]; listed as R406 base): ≥ 2 h | solubility in PBS ([5]; PBS): insoluble (below the limit of quantitation) | time stable in castor oil ([6]; room temperature): at least 6 days | average concentration remaining, % of the initial concentration ([6]; stored in castor oil at room temperature, after 6 days, n=3): 113.3% | Cmax [7]: 0.119 µM | Plasma AUClast [7]: 119 nM·h | Plasma Dose normalized AUC [7]: 0.9 nM∙h/nmol | Plasma Tlast [7]: 2 h | Plasma Tmax [7]: 0.5 h

SMILES: CCCCCCCCCCCCCCCC(=O)O.COc1cc(Nc2ncc(F)c(Nc3ccc4c(n3)NC(=O)C(C)(C)O4)n2)cc(OC)c1OC [R406 palmitate salt]
R406 levels in the eye at 0.5 h post dosing [3]: 0.3 ± 0.3 µM | R406 levels in the eye at 1 h post dosing [3]: 0.3 ± 0.2 µM | drug in plasma samples [3]: No detectable drug | vitreous concentration of R406 ([3]; topical 40 mM R406 palmitate 5% cyclodextrin suspension, 1-4 hourly doses, sustained for 1.5 h after each application): 1 to 2 µM | Cmax ([3]; topical delivery in cyclodextrin drops, sustainable via repeated dosing, read-out: vitreous Cmax / intraocular concentration): > 1 µM

R406 levels in plasma samples [8]: BLOQ | solubility ([9]; Trial 2: 2% PEG-8000, 98% PBS): 3560 µM (≈ 2070 µg/mL) | solubility ([9]; aqueous buffer, Trial 3: 0.5% EtOH, 99.5% PBS): 1010 µM (≈ 586 µg/mL) | solubility ([9]; aqueous buffer, Trial 4: 3% Glycerin, 97% PBS): 1130 µM (≈ 656 µg/mL) | solubility ([9]; aqueous buffer, Trial 9: 100% PBS): 1240 µM (≈ 720 µg/mL) | solubility ([9]; aqueous with cosolvent or surfactant or cyclodextrin, Trial 1: 0.1% Tyloxapol, 99.9% PBS): 1230 µM (≈ 714 µg/mL) | solubility ([9]; aqueous with cosolvent or surfactant or cyclodextrin, Trial 5: 5% Cremaphor-eL, 95% PBS): 1430 µM (≈ 830 µg/mL) | solubility ([9]; aqueous with cosolvent or surfactant or cyclodextrin, Trial 6: 10% PPG, 90% PBS): 1130 µM (≈ 656 µg/mL) | solubility ([9]; aqueous with cosolvent or surfactant or cyclodextrin, Trial 7: 15% pPPG, 85% PBS): 1530 µM (≈ 888 µg/mL) | solubility ([9]; aqueous with cosolvent or surfactant or cyclodextrin, Trial 8: 4% Tween-80, 96% PBS): 1710 µM (≈ 993 µg/mL) | solubility ([9]; aqueous with cosolvent or surfactant or cyclodextrin, Trial 10: 5% Cremaphor-eL, 4% Tween-80, 91% PBS): 1510 µM (≈ 877 µg/mL) | solubility ([9]; aqueous with cosolvent or surfactant or cyclodextrin, Trial 11: 15% pPPG, 4% Tween-80, 81% PBS): 1840 µM (≈ 1070 µg/mL) | solubility ([9]; aqueous with cosolvent or surfactant or cyclodextrin, Trial 12: 5% Cremaphor-eL, 15% pPPG, 80% PBS): 2150 µM (≈ 1250 µg/mL) | solubility ([9]; aqueous with cosolvent or surfactant or cyclodextrin, Trial 13: 5% Cremaphor-eL, 15% pPPG, 4% Tween-80, 76% PBS): 2640 µM (≈ 1530 µg/mL) | solubility ([9]; aqueous with cosolvent or surfactant or cyclodextrin, Trial 14: 2% PEG-8000, 5% Cremaphor-eL, 15% pPPG, 4% Tween-80, 74% PBS): 3470 µM (≈ 2010 µg/mL) | solubility ([5]; PBS, read-out: maximum solubility in PBS): 1400 µM (≈ 813 µg/mL) | solubility ([5]; saline, read-out: maximum solubility in saline): 1200 to 1400 µM (≈ 697 to 813 µg/mL) | conversion of R788 to R406 [10]: 100%
SMILES: COc1cc(Nc2ncc(F)c(Nc3ccc4c(n3)N(COP(=O)(O)O)C(=O)C(C)(C)O4)n2)cc(OC)c1OC [R788]

SMILES: COc1ccc(C2=N[C@@H](c3ccc(Cl)cc3)[C@@H](c3ccc(Cl)cc3)N2C(=O)N2CCNC(=O)C2)c(OC(C)C)c1 [nutlin-3a]
AUC ratio of vitreous to plasma [11]: 28.6 | water solubility [12]: approximately 40 μM
